Legend:
SMARCA4 = biological target: T1, SMARCA4 (Homo sapiens, UniProt P51532); assay: SMARCA4 Western blot MV4-11 degradation; assay type: cell-based; conditions: 24 h; for Dmax: MV4-11, MV4-11 cells, read-out: SMARCA4 WB MV411 degradation 24 h: Average Dmax %; for DC50: MV4-11 cells, read-out: SMARCA4 WB MV411 degradation 24 h: Average external-Abs DC50
T1 construct: SMARCA2 and SMARCA4 protein degradation in MV4-11 cells; endogenous in cells; host or cells: MV4-11
In short: (§1)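 MV4-11 cells treated with compound for 24 h, lysed in RIPA with protease/phosphatase inhibitors, and SMARCA2 and SMARCA4 (BRG1) levels assessed by Western blot with β-actin loading control and LI-COR fluorescent read-out. Maximal degradation (Dmax %) after 24 h binned into letter codes.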

SMARCA2 = SMARCA2 (Homo sapiens, UniProt P51531); assay: SMARCA2 Western blot MV4-11 degradation; assay type: cell-based; conditions: 24 h; for Dmax: MV4-11, MV4-11 cells, read-out: SMARCA2 WB MV411 degradation 24 h: Average Dmax %; for DC50: MV4-11 cells, read-out: SMARCA2 WB MV411 degradation 24 h: Average external-Abs DC50
Chain of SMARCA2 (P51531 whole entry): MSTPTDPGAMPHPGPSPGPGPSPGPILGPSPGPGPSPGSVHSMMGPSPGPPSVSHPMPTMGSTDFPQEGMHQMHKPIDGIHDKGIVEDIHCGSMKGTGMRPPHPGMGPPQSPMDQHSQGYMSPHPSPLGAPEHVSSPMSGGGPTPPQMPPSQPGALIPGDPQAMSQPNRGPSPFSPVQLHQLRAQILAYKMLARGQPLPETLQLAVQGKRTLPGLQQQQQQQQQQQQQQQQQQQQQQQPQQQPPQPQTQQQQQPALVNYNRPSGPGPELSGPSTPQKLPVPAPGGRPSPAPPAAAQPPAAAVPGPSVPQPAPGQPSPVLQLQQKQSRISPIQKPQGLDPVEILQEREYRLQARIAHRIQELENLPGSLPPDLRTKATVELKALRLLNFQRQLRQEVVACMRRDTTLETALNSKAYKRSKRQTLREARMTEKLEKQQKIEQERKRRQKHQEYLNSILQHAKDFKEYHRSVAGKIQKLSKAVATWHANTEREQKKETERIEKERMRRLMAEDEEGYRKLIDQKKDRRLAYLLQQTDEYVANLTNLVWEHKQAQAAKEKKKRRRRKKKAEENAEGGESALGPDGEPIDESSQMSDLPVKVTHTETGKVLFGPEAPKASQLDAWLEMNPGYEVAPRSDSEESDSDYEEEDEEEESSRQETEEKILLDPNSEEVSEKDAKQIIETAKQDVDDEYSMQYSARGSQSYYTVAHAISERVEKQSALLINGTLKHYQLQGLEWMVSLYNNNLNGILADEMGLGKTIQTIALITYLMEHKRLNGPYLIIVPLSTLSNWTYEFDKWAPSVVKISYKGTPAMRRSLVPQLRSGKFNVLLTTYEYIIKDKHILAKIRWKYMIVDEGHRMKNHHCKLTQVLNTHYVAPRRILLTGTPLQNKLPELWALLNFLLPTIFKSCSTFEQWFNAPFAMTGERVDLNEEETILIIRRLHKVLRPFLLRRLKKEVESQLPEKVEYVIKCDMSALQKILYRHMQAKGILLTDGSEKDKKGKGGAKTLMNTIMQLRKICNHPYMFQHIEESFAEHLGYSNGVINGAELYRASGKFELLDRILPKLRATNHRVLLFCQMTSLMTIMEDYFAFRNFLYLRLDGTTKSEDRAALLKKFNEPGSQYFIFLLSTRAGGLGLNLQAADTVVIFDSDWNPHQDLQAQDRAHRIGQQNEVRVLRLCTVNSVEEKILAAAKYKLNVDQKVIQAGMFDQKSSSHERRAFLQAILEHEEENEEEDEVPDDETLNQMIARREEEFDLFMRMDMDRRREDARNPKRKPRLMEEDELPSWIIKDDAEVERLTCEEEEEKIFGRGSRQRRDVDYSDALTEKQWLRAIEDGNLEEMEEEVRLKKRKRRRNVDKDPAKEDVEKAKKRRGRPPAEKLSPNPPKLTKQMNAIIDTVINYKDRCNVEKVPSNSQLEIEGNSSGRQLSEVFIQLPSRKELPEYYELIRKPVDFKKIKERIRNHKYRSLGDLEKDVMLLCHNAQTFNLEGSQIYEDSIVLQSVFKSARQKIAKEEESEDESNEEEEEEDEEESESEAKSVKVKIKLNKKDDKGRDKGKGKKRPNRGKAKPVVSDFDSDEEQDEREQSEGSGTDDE
In short: as §1

T1 sequence (P51532 whole entry): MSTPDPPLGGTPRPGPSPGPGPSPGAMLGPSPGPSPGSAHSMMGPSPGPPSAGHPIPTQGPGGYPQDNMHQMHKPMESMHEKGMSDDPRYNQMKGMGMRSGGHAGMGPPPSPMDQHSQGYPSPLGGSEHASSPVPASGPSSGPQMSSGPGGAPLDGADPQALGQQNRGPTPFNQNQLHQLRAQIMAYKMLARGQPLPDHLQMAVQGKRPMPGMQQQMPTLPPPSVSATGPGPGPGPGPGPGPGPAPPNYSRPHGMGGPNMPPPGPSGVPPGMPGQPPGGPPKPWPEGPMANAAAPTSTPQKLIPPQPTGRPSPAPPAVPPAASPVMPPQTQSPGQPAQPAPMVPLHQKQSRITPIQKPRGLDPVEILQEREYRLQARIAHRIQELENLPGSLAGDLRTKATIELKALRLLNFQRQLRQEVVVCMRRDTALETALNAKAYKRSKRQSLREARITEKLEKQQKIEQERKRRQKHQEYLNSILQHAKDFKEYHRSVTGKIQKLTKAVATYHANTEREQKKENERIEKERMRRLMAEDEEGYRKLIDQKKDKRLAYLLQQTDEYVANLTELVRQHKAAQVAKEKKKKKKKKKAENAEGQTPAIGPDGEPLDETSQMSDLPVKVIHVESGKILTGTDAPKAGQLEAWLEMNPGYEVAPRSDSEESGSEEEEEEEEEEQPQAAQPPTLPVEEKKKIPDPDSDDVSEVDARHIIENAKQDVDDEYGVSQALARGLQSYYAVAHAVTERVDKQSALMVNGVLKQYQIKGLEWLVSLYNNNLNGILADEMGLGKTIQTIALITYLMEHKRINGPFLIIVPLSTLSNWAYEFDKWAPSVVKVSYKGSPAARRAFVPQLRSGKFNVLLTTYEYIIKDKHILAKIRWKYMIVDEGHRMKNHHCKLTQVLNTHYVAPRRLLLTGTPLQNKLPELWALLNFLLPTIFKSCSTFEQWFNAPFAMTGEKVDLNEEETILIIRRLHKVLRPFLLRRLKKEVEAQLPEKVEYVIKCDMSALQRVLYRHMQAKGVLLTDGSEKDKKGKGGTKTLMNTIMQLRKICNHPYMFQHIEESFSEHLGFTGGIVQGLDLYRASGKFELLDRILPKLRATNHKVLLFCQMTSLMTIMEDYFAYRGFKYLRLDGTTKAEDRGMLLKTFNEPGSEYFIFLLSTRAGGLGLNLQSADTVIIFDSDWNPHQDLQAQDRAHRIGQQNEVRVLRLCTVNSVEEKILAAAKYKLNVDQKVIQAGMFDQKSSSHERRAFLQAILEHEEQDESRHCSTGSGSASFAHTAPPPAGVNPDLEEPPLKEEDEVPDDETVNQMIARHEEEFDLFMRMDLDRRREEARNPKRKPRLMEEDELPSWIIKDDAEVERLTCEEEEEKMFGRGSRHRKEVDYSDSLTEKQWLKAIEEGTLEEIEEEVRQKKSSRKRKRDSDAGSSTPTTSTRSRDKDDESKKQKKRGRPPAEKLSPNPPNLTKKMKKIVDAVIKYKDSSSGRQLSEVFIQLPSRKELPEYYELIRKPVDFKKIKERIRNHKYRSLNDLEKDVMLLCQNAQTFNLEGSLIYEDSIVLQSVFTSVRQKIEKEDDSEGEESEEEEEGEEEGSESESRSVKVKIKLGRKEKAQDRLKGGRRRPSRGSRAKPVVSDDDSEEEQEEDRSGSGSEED

Compound	Dmax (SMARCA4) [%]	DC50 (SMARCA4) [nM]	Dmax (SMARCA2) [%]	DC50 (SMARCA2) [nM]
Cc1ncsc1-c1ccc(CNC(=O)[C@@H]2C[C@@H](O)CN2C(=O)[C@@H](NC(=O)[C@H]2CC3(C2)C[C@H](N2CCC(n4cc(-c5cc(-c6ccccc6O)nnc5N)cn4)CC2)C3)C(C)(C)C)cc1 (stereo partly drawn) [I-389]	70 to 90	< 100	70 to 90	< 100
Cn1c(=O)n(C2CCC(=O)NC2=O)c2ccc(CCCCCCCc3nccc(N4C5CCC4CN(c4cc(-c6ccccc6O)nnc4N)C5)n3)cc21 (stereo not drawn) [I-287, 3-(5-(7-(4-(3-(3-amino-6-(2-hydroxyphenyl)pyridazin-4-yl)-3,8-diazabicyclo[3.2.1]octan-8-yl)pyrimidin-2-yl)heptyl)-3-methyl-2-oxo-2,3-dihydro-1H-benzo[d]imidazol-1-yl)piperidine-2,6-dione]	50 to 70	> 1000	70 to 90	< 100
Cc1ncsc1-c1ccc(CNC(=O)[C@@H]2C[C@@H](O)CN2C(=O)[C@@H](NC(=O)[C@H]2CC[C@H](CN3CCC(n4cc(-c5cc(-c6ccccc6O)nnc5N)cn4)CC3)CC2)C(C)(C)C)cc1 [I-403]	< 50	501 to 1000	70 to 90	< 100
Cc1ncsc1-c1ccc(CNC(=O)[C@@H]2C[C@@H](O)CN2C(=O)[C@@H](NC(=O)[C@H]2CC[C@@H](c3cnc(N4C5CCC4CN(c4cc(-c6ccccc6O)nnc4N)C5)nc3)CC2)C(C)(C)C)cc1 [I-336]	> 90	< 100	> 90	< 100
Cc1ncsc1-c1ccc(CNC(=O)[C@@H]2C[C@@H](O)CN2C(=O)[C@@H](NC(=O)[C@H]2CC[C@H](c3cnc(N4C5CCC4CN(c4cc(-c6ccccc6O)nnc4N)C5)nc3)CC2)C(C)(C)C)cc1 [I-337, (2S,4R)-1-((2S)-2-((1r,4S)-4-(2-(3-(3-amino-6-(2-hydroxyphenyl)pyridazin-4-yl)-3,8-diazabicyclo[3.2.1]octan-8-yl)pyrimidin-5-yl)cyclohexanecarboxamido)-3,3-dimethylbutanoyl)-4-hydroxy-N-(4-(4-methylthiazol-5-yl)benzyl)pyrrolidine-2-carboxamide]	> 90	< 100	> 90	< 100
Cc1ncsc1-c1ccc(CNC(=O)[C@@H]2C[C@@H](O)CN2C(=O)[C@@H](NC(=O)[C@H]2CC[C@@H](CN3CCC(n4cc(-c5cc(-c6ccccc6O)nnc5N)cn4)CC3)CC2)C(C)(C)C)cc1 [I-402]	< 50	> 1000	70 to 90	< 100

Reference: US12624044B2, “SMARCA degraders and uses thereof” (Kymera Therapeutics, Inc., priority 2019, dated 2026)
